# From patent publication US9926324B2, “Heteroaromatic compounds as PI3 kinase modulators and methods of use” (Calitor Sciences, LLC, priority 2012, dated 2018)
# What was measured:
# [1] = Compound stability in human liver microsomes; assay type: in vitro ADME; details: for Human T1/2 / half-life at 5 μM: human liver microsomes 0.5 mg protein/mL, compound 5 μM, NADPH 1.0 mM, 37° C.; for half-life at 5 μM / CLint scaled at 5 μM: pH 7.4; for half-life at 5 μM: read-out: Human T1/2; for CLint scaled at 5 μM: human liver microsomes, in vivo CLint extrapolated
# Experimental: (§1) Human or rat liver microsomes incubations were conducted in duplicate in polypropylene tubes. The typical incubation mixtures consisted of human or rat liver microsomes (0.5 mg protein/mL), compounds of interest (5 μM) and NADPH (1.0 mM) in a total volume of 200 μL potassium phosphate buffer (PBS, 100 mM, pH=7.4). Compounds were dissolved in DMSO and diluted with PBS such that the final concentration of DMSO was 0.05%. The enzymatic reactions were commenced with the addition of […] after a 3-min preincubation and incubated in a water bath open to the air at 37° C. Reactions were terminated at various time points (0, 5, 10, 15, 30, 60 min) by adding equal volume of ice-cold acetonitrile. The samples were stored at −80° C. until LC/MS/MS assays.
# (§2) The concentrations of compounds in the incubation mixtures of human or rat liver microsomes were determined by a LC/MS/MS method. The ranges of the linearity in the concentration range were determined for each tested compounds.
# (§3) A parallel incubation was performed using denatured microsomes as the negative control, and reactions were terminated at various time points (0, 15, 60 min) after incubation at 37° C.
# (§4) Dextromethorphan (70 μM) was selected as the positive control, and reactions were terminated at various time points (0, 5, 10, 15, 30, 60 min) after incubation at 37° C. Both positive and negative control samples were included in each assay to ensure the integrity of the microsomal incubation system.
# (§5) The concentrations of compounds in human or rat liver microsome incubations were plotted as a percentage of the relevant zero time point control for each reaction. The in vivo CLint were extrapolated (ref: Naritomi Y, Terashita S, Kimura S, Suzuki A, Kagayama A, Sugiyama Y. Prediction of human hepatic clearance from in vivo animal experiments and in vitro metabolic studies with liver microsomes from animals and humans. Drug Metabolism and Disposition 2001, 29: 1316-1324).
# [2] = Pharmacokinetic profiles in mice after intravenous and oral administration; assay type: in vivo; details: Mouse; for F: oral dose generally 5 or 10 mg/kg; for AUC(0-t) / half-life / Vd: plasma; for Vd: read-out: Vss
# Experimental: (§6) The compounds disclosed herein are assessed in pharmacokinetic studies in mice, rats, dogs or monkeys. The compounds are administered as a water solution, 2% HPMC+1% TWEEN® 80 in water solution, 5% DMSO+5% solutol in saline, 4% MC suspension or capsule. For the intravenous administration, the animals are generally given at 1 or 2 mg/kg dose. For the oral (p.o.) dosing, mice and rats are generally given 5 or 10 mg/kg dose, and dogs and monkeys are generally given 10 mg/kg dose. The blood samples (0.3 mL) are drawn at 0.25, 0.5, 1.0, 2.0, 3.0, 4.0, 6.0, 8.0, 12 and 24 h time points or 0.083, 0.25, 0.5, 1.0, 2.0, 4.0, 6.0, 8.0 and 24 h time points and centrifuged at 3,000 or 4000 rpm for 2 to 10 min. The plasma solutions are collected, stored at −20° C. or −70° C. until analyzed by LC/MS/MS as described above.
# mTOR (h) = molecular target: T1, mTOR (h) (Homo sapiens, UniProt P42345); assay: mTOR (h) kinase assay (33P-ATP, filter); assay type: biochemical
# T1 construct: purchased Millipore UK Ltd (assay service)
# Experimental: mTOR (h) is incubated with 50 mM HEPES pH 7.5, 1 mM EDTA, 0.01% Tween 20, 2 mg/mL substrate, 3 mM Manganese Chloride and [γ-^33P-ATP] (specific activity approx. 500 cpm/pmol, concentration as required). The reaction is initiated by the addition of the MnATP mix. After incubation for 40 minutes at room temperature, the reaction is stopped by the addition of 3% phosphoric acid solution. 10 μL of the reaction is then spotted onto a P30 filtermat and washed three times for 5 minutes in 75 mM phosphoric acid and once in methanol prior to drying and scintillation counting.
# (§7) The kinase assays described herein were performed at Millipore UK Ltd, Dundee Technology Park, Dundee DD2 1SW, UK.
# [3] = Pharmacokinetic profiles in monkeys after intravenous and oral administration; assay type: in vivo; details: Monkey; for F: iv dose 1 mg/kg, oral dose generally 10 mg/kg; for Cl/F / AUC(0-t) / half-life / Vd: iv dosing 1 mg/kg; for AUC(0-t) / half-life / Vd: plasma; for Vd: read-out: Vss
# Experimental: as §6
# [4] = Compound stability in rat liver microsomes; assay type: in vitro ADME; details: for Rat T1/2 / half-life at 5 μM: rat liver microsomes 0.5 mg protein/mL, compound 5 μM, NADPH 1.0 mM, 37° C.; for half-life at 5 μM / CLint scaled at 5 μM: pH 7.4; for half-life at 5 μM: read-out: Rat T1/2; for CLint scaled at 5 μM: rat liver microsomes, in vivo CLint extrapolated
# Experimental: as §1, §2, §3, §4, §5
# PI3K p110α/p85α (h) = molecular target: T2, PI3K p110α/p85α (h) (Homo sapiens, UniProt P42336); assay: PI3K p110α/p85α (h) non-radioactive HTRF assay; assay type: biochemical
# T2 construct: purchased Millipore UK Ltd (assay service)
# T2 sequence (P42336 whole entry): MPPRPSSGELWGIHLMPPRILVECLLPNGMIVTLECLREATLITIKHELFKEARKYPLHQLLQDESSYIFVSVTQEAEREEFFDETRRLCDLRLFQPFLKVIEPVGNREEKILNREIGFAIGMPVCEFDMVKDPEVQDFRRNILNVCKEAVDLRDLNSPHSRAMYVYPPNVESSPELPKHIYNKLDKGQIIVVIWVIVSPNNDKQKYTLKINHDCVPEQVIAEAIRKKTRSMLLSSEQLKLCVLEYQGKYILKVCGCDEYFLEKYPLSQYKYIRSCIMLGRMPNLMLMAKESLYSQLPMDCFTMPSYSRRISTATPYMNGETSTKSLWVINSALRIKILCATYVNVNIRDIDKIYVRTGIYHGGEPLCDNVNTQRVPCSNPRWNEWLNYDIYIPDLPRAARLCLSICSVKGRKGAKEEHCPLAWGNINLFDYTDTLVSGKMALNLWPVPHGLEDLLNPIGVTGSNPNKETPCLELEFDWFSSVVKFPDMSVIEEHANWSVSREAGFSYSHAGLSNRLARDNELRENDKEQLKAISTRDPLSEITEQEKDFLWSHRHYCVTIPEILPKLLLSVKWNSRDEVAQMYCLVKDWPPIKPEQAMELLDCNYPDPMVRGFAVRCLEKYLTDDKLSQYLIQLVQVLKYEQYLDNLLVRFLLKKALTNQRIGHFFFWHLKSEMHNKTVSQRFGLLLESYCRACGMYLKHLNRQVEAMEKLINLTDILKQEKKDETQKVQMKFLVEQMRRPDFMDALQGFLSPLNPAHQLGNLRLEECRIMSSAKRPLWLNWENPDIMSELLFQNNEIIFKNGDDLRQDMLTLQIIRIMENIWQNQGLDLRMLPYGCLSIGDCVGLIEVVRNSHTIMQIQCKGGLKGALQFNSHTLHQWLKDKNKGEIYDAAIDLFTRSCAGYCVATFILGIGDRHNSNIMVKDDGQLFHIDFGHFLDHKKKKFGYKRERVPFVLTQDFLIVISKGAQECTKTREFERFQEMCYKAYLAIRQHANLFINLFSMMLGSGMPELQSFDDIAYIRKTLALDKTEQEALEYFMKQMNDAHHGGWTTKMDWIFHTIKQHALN
# T2 sequence (P27986 whole entry partner): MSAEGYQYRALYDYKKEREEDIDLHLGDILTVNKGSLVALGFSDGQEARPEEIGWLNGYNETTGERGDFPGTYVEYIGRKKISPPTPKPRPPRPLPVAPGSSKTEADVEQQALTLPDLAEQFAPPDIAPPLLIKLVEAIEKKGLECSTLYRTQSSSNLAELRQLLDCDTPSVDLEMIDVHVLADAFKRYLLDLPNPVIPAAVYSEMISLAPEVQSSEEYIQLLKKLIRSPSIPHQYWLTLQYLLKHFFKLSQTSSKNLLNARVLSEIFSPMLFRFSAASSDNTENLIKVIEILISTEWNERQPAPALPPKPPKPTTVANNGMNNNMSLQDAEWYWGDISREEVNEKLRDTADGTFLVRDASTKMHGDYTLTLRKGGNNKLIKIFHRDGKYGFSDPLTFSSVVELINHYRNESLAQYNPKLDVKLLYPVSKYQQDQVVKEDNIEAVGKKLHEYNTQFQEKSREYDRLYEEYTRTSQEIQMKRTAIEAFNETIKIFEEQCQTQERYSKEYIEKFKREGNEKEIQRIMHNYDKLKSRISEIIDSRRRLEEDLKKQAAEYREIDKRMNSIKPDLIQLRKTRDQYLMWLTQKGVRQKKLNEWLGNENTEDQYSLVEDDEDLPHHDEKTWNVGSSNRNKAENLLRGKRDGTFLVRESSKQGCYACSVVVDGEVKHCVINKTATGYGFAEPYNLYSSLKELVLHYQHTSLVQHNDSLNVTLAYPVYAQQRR
# Experimental: (§8) PI3K p110α/p85α (h) is incubated in assay buffer containing 10 μM phosphatidylinositol 4,5-bisphosphate and MgATP (concentration as required). The reaction is initiated by the addition of the ATP solution. After incubation for 30 minutes at room temperature, the reaction is stopped by the addition of stop solution containing EDTA and biotinylated phosphatidylinositol-3,4,5-trisphosphate. Finally, detection buffer is added, which contains europium-labelled anti-GST monoclonal antibody, GST-tagged GRP1 PH domain and streptavidin allophycocyanin. The plate is then read in timeresolved fluorescence mode and the homogenous time-resolved fluorescence (HTRF) signal is determined according to the formula HTRF=10000×(Em665 nm/Em620 nm).
# as §7
# PI3K p110β/p85α (h) = molecular target: T3, PI3K p110β/p85α (h) (Homo sapiens, UniProt P42338); assay: PI3K p110β/p85α (h) non-radioactive HTRF assay; assay type: biochemical
# T3 construct: purchased Millipore UK Ltd (assay service)
# T3 sequence (P42338 whole entry): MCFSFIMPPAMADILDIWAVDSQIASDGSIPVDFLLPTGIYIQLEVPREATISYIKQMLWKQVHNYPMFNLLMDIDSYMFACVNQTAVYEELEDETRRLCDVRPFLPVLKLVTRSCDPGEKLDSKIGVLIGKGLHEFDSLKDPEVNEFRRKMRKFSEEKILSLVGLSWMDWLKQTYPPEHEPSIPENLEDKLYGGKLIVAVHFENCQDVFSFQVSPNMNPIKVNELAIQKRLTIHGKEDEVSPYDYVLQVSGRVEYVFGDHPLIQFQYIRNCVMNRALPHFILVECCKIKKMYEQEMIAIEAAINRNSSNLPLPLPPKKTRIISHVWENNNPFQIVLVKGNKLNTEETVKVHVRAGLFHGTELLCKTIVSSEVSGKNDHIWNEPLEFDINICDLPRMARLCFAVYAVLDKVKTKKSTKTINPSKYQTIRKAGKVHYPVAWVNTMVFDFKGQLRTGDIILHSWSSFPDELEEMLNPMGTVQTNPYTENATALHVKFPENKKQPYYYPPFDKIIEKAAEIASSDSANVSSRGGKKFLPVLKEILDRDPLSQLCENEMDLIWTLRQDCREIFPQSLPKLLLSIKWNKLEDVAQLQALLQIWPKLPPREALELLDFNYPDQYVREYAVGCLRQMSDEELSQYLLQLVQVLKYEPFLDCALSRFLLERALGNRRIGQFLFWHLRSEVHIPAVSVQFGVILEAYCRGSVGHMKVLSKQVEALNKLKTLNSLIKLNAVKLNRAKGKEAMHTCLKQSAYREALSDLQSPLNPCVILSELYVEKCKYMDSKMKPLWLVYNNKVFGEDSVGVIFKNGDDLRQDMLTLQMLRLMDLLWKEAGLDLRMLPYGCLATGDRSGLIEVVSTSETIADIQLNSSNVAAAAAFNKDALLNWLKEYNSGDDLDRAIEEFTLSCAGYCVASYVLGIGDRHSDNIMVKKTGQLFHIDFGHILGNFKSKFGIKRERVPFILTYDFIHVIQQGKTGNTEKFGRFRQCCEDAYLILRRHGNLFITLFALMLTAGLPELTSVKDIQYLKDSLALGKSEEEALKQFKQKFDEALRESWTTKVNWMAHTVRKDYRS
# T3 sequence (P27986 whole entry partner): as the sequence (P27986 whole entry partner) above
# Experimental: as §8, with “(p110β/p85α)” for “p110α/p85α”, “phosphatidylinositol-4,5-bisphosphate” for “phosphatidylinositol 4,5-bisphosphate”, “MgATP mix.” for “ATP solution.”, “streptavidin-allophycocyanin.” for “streptavidin allophycocyanin.”
# as §7
# [5] = Pharmacokinetic profiles in rats after intravenous and oral administration; assay type: in vivo; details: for F: oral dose generally 5 or 10 mg/kg; for AUC(0-t) / half-life / Vd: rat, plasma; for Vd: read-out: Vss
# Experimental: as §6
Human T1/2 [1],F ([2]; iv dose 2 mg/kg) [%],Cl/F ([2]; iv dosing 2 mg/kg) [mL/min/kg],AUC(0-t) ([2]; iv dosing 2 mg/kg) [ng·h/mL],half-life ([2]; iv dosing 2 mg/kg) [h],Vd ([2]; iv dosing 2 mg/kg) [L/kg],IC50 (mTOR (h)) [nM],F [3] [%],Cl/F [3] [mL/min/kg],AUC(0-t) [3] [ng·h/mL],half-life [3] [h],Vd [3] [L/kg],Rat T1/2 [4],IC50 (PI3K p110α/p85α (h)) [nM],IC50 (PI3K p110β/p85α (h)) [nM],F ([5]; iv dose 1 mg/kg) [%],Cl/F ([5]; iv dosing 1 mg/kg) [mL/min/kg],AUC(0-t) ([5]; iv dosing 1 mg/kg) [ng·h/mL],half-life ([5]; iv dosing 1 mg/kg) [h],Vd ([5]; iv dosing 1 mg/kg) [L/kg],SMILES,also measured
∞,118.7,6.17,5330,4.02,0.57,9,27.3,7.5,2370,3.59,0.39,∞,2,38,104.2,2.33,7490,4.1,0.37,"COc1ncc(-c2ccc3ncc(C#CCO)n3n2)cc1NS(=O)(=O)c1ccc(F)cc1F [Ex. 9, 2,4-difluoro-N-(5-(3-(3-hydroxyprop-1-yn-1-yl)imidazo[1,2-b]pyridazin-6-yl)-2-methoxypyridin-3-yl)benzenesulfonamide]",
,,,,,,34,55.4,5.33,3200,5.89,0.76,,2,27,,,,,,"COc1ncc(-c2ccc3ncc(C#CCO)n3c2)cc1NS(=O)(=O)c1ccc(F)cc1F [Ex. 15, 2,4-difluoro-N-(5-(3-(3-hydroxyprop-1-yn-1-yl)imidazo[1,2-a]pyridin-6-yl)-2-methoxypyridin-3-yl)benzenesulfonamide]",half-life at 5 μM [1]: 8.39 h; CLint scaled at 5 μM [1]: 3.45 mL/min/kg; F ([2]; iv dose 1 mg/kg): 116.9%; AUC(0-t) ([2]; iv dosing 1 mg/kg): 20000 ng·h/mL; half-life ([2]; iv dosing 1 mg/kg): 2.83 h; half-life at 5 μM [4]: 2.01 h; CLint scaled at 5 μM [4]: 20.6 mL/min/kg; F ([5]; iv dose 2 mg/kg): 97.0%; Cl/F ([5]; iv dosing 2 mg/kg): 1.3 mL/min/kg; AUC(0-t) ([5]; iv dosing 2 mg/kg): 25600 ng·h/mL; half-life ([5]; iv dosing 2 mg/kg): 3.14 h; Vd ([5]; iv dosing 2 mg/kg): 0.22 L/kg
,,,,,,31,,,,,,,2,66,99.77,1.67,19400,2.65,0.35,"COc1ncc(-c2ccc3ncc(C#CC(C)O)n3c2)cc1NS(=O)(=O)c1ccc(F)cc1F (stereo not drawn) [Ex. 16, 2,4-difluoro N (5 (3 (3 hydroxybut-1-yn-1-yl)imidazo[1,2-a]pyridin-6-yl)-2-methoxypyridin-3-yl)benzenesulfonamide]",half-life at 5 μM [1]: 5.22 h; CLint scaled at 5 μM [1]: 5.55 mL/min/kg; half-life at 5 μM [4]: 0.894 h; CLint scaled at 5 μM [4]: 46.3 mL/min/kg
∞,72.6,0.33,96100,5.25,0.14,3,69.8,3.67,4640,6.05,0.64,∞,2,26,,,,,,"COc1ncc(-c2ccc3ncc(C#N)n3n2)cc1NS(=O)(=O)c1ccc(F)cc1F [Ex. 24, N-(5-(3-cyanoimidazo[1,2-b]pyridazin-6-yl)-2-methoxypyridin-3-yl)-2,4-difluorobenzenesulfonamide]",F ([5]; iv dose 2 mg/kg): 108%; Cl/F ([5]; iv dosing 2 mg/kg): 4 mL/min/kg; AUC(0-t) ([5]; iv dosing 2 mg/kg): 8400 ng·h/mL; half-life ([5]; iv dosing 2 mg/kg): 3.06 h; Vd ([5]; iv dosing 2 mg/kg): 0.55 L/kg
